Source: ChEMBL document CHEMBL1201862, “PubChem BioAssay data set” (2004)
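These data come from cells grown in 96-well plates and exposed to compound for 48 hours at five concentrations. The concentration for 50% growth inhibition is given as GI50.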 Active and inactive are the calls of the source. Cut-off read from the data, not from the text of the source: active = GI50 up to about 1.1 µM and inactive = higher.

What was measured:
Experiment in all cases: NCI tumour cell line growth inhibition, 48 h
BT-549 = system: BT-549
DMS-273 = system: DMS-273
HOP-18 = system: HOP-18
KM-20L2 = system: KM-20L2
M19-MEL = system: M19-MEL
SNB-78 = system: SNB-78
XF498 = system: XF498
DLD-1 = system: DLD-1
RXF 631 = system: RXF 631

CCOP(=O)(OCC)/C(C#N)=C/c1ccnc2ccccc12
GI50 (BT-549): 23.9 µM (inactive)

COc1c(C)c(C/C=C(\C)CCCCO[Si](C(C)C)(C(C)C)C(C)C)c(OC)c2ccccc12
GI50 (BT-549): > 100 µM (inactive)

O=C(CCc1cc(-c2ccc(F)cc2)n[nH]1)N(Cc1ccccc1)Cc1ccccc1
GI50 (DMS-273): > 100 µM (inactive)
GI50 (HOP-18): > 100 µM (inactive)
GI50 (KM-20L2): > 100 µM (inactive)
GI50 (M19-MEL): > 100 µM (inactive)
GI50 (SNB-78): > 100 µM (inactive)
GI50 (XF498): > 100 µM (inactive)

N#C[C@](CO)(NC(=O)OCc1ccccc1)C(F)F
GI50 (BT-549): > 100 µM (inactive)

CC1=CC23C(COC(=O)C24CO4)C(C(=O)O)=CC3C1C (centres undefined)
GI50 (BT-549): 4.9 µM (inactive)

O=[N+]([O-])c1ccc(/C(=N/c2ccccc2)SS/C(=N\c2ccccc2)c2ccc([N+](=O)[O-])o2)o1
GI50 (BT-549): 1.75 µM (inactive)

Cc1ccc(-c2cc(-c3ccccc3)c(C#N)c(=O)n2C2OC(CO)C(O)C(O)C2O)cc1 (centres undefined)
GI50 (DLD-1): > 100 µM (inactive)
GI50 (DMS-273): > 100 µM (inactive)
GI50 (HOP-18): > 100 µM (inactive)
GI50 (KM-20L2): > 100 µM (inactive)
GI50 (M19-MEL): > 100 µM (inactive)
GI50 (RXF 631): > 100 µM (inactive)
GI50 (SNB-78): > 100 µM (inactive)

N#Cc1ccc(C2ON=C(c3ccccc3)N2C23CC4CC(CC(C4)C2)C3)cc1 (centres undefined)
GI50 (BT-549): 5.66 µM (inactive)

Cc1cccc(Cl)c1NCC(O)CN1CCN(C)CC1 (centres undefined)
GI50 (BT-549): > 100 µM (inactive)

COC(=O)[C@]1(C)CCC[C@]2(C)C3CC4OOC3(C=C4C(C)(C)O)CCC21 (some centres undefined)
GI50 (DLD-1): 28.4 µM (inactive)
GI50 (KM-20L2): 35.8 µM (inactive)
GI50 (M19-MEL): 43 µM (inactive)
GI50 (RXF 631): > 100 µM (inactive)
GI50 (SNB-78): 30.8 µM (inactive)
GI50 (XF498): 20.6 µM (inactive)

N#Cc1ccccc1NC(=O)/C(=N\N)C(C(=O)c1ccncc1)C1OC(=O)c2ccccc21 (centres undefined)
GI50 (KM-20L2): > 100 µM (inactive)
GI50 (M19-MEL): > 100 µM (inactive)
GI50 (XF498): > 100 µM (inactive)

OCC(O)C(OC1OC(CO)C(O)C(O)C1O)c1nn(-c2ccccc2)c2nc3cc(Cl)c(Cl)cc3cc12 (centres undefined)
GI50 (DLD-1): > 100 µM (inactive)
GI50 (KM-20L2): > 100 µM (inactive)
GI50 (M19-MEL): > 100 µM (inactive)
GI50 (RXF 631): > 100 µM (inactive)
GI50 (SNB-78): > 100 µM (inactive)
GI50 (XF498): > 100 µM (inactive)

Nc1ccc(CCN2CCN(CCCc3ccccc3)CC2)cc1
GI50 (BT-549): 80.7 µM (inactive)

CC1=C(/C=C/C(C)=C/C=C/C(C)=C/C(=O)OCC2OC(n3cc(F)c(=O)[nH]c3=O)CC2OC(=O)/C=C(C)/C=C/C=C(C)/C=C/C2=C(C)CCCC2(C)C)C(C)(C)CCC1 (centres undefined)
GI50 (BT-549): 29.6 µM (inactive)

S=c1[nH]c2ccc(Br)cc2c(=S)s1
GI50 (BT-549): 29.9 µM (inactive)

CC(C)(C)OC(=O)Cn1ncn(NC(=O)Cc2ccccc2)c1=S
GI50 (BT-549): > 10 µM (inactive)

COc1ccc(C2NC(=O)Nc3c2c(=O)oc2c3ccc3ccccc32)cc1 (centres undefined)
GI50 (BT-549): 41.6 µM (inactive)

CCOC(=O)C1=C(C)C2C3C(=O)NC(=O)C3C1(C)C1C(=O)NC(=O)C21 (centres undefined)
GI50 (DLD-1): > 100 µM (inactive)
GI50 (DMS-273): > 100 µM (inactive)
GI50 (HOP-18): 3.49 µM (inactive)
GI50 (KM-20L2): > 100 µM (inactive)
GI50 (M19-MEL): > 100 µM (inactive)
GI50 (SNB-78): > 100 µM (inactive)

COc1ccc2c(c1)-c1c(c3cc(OC)ccc3n1CCN(C)C)CC2
GI50 (BT-549): 13.9 µM (inactive)

CC1(C)C(CC(=O)O)CCCC1CC(=O)O (centres undefined)
GI50 (BT-549): > 100 µM (inactive)

COc1ccc(-c2cc(-c3ccc(Nc4ccnc5cc(Cl)ccc45)cc3)[nH]c(=O)c2C#N)c2ccccc12
GI50 (BT-549): 16.4 µM (inactive)

O=C(NC(CS)C(=O)O)c1c2ccccc2nc2ccccc12 (centres undefined)
GI50 (BT-549): 12.8 µM (inactive)

CCC(/C(=N\Nc1c(Cl)cc(Cl)cc1Cl)c1ccccc1)n1ccnc1C (centres undefined)
GI50 (DLD-1): 4.22 µM (inactive)
GI50 (DMS-273): 4.6 µM (inactive)
GI50 (HOP-18): 14.9 µM (inactive)
GI50 (KM-20L2): 4.61 µM (inactive)
GI50 (M19-MEL): 14.8 µM (inactive)
GI50 (RXF 631): 9.64 µM (inactive)
GI50 (SNB-78): 19.1 µM (inactive)

CCOC(=O)c1cc(=O)n(C)c(=O)n1C
GI50 (DLD-1): > 100 µM (inactive)
GI50 (DMS-273): > 100 µM (inactive)
GI50 (HOP-18): > 100 µM (inactive)
GI50 (KM-20L2): > 100 µM (inactive)
GI50 (M19-MEL): > 100 µM (inactive)
GI50 (SNB-78): > 100 µM (inactive)
GI50 (XF498): > 100 µM (inactive)

CC(=O)Nc1ccc(C(=O)N[C@@H]2C(=O)N3[C@@H]2SC(C)(C)[C@@H]3C(=O)O)cn1
GI50 (BT-549): > 100 µM (inactive)

CCOC(=O)C1C(c2ccc(O)c(OC)c2)c2c(n[nH]c2O)CC1(C)O (centres undefined)
GI50 (BT-549): 0.0159 µM (active)

N#Cc1c(-c2ccc(Cl)cc2)c(C#N)c(=O)n(NS(=O)(=O)c2ccccc2)c1-c1ccccc1
GI50 (BT-549): > 25 µM (inactive)

CCC1C(c2cc(OC)c(OC)c(OC)c2)c2cc3c(cc2OC1N1CCCC1)OCO3 (centres undefined)
GI50 (BT-549): 4.06 µM (inactive)

O=S(=O)(Cc1ccccc1)c1nnc(S(=O)(=O)c2ccc(Cl)cc2)s1
GI50 (BT-549): 20 µM (inactive)

CC(=O)/C=C/CCC(=O)/C=C/C(=O)OC(CCC(=O)/C=C/C(=O)O)CC(C)=O (centres undefined)
GI50 (BT-549): > 100 µM (inactive)

C#CCN1CCN(C(=S)N/N=C(\C)c2ccccn2)CC1
GI50 (BT-549): 1.49 µM (inactive)
GI50 (DLD-1): 0.01 µM (active)
GI50 (DMS-273): < 0.0161 µM (active)
GI50 (HOP-18): 2.72 µM (inactive)
GI50 (KM-20L2): < 0.0248 µM (active)
GI50 (SNB-78): 5.37 µM (inactive)
GI50 (XF498): 0.01 µM (active)

CCN(CC)C(=O)CCn1cc(F)c(=O)[nH]c1=O
GI50 (DMS-273): > 100 µM (inactive)
GI50 (KM-20L2): > 100 µM (inactive)
GI50 (M19-MEL): > 100 µM (inactive)
GI50 (SNB-78): > 100 µM (inactive)
GI50 (XF498): > 100 µM (inactive)

O=C(O)CNc1ccc2c(c1)Cc1cc(Br)ccc1-2
GI50 (BT-549): 23.3 µM (inactive)

Nc1nc(N)c2cc(-c3ccccc3)cnc2n1
GI50 (BT-549): 16.6 µM (inactive)
